Data taken from the NIST ThermoML archive (doi:10.1021/je060170c).
Where “and” joins values, the source holds several entries; their conditions need not be identical. Identical values can stand only once.

Tests used:
[1] = 101 kPa, Liquid; for viscosity: Anton Paar Stabinger viscometer
[2] = xn = mol fraction of the nth substance listed; conditions: 101 kPa, Liquid; for viscosity: Anton Paar Stabinger viscometer

Cc1ccccc1C [1,2-dimethylbenzene]
[1]
Conditions	mass density [kg/m3]	speed of sound [m/s]	viscosity [mPa·s]
288.15 K	883.285	1390.3	0.871
293.15 K	879.083	1369.7	0.81
298.15 K	875.532	1349.4	0.756
303.15 K	870.726	1328.3	0.708

COc1ccccc1 [anisole]
[1]
Conditions	mass density	speed of sound	viscosity [mPa·s]
288.15 K	998.441 kg/m3 and 998.44 kg/m3	1449.1 m/s	1.188
293.15 K	993.649 kg/m3 and 993.653 kg/m3 and 993.651 kg/m3	1428.5 m/s	1.084
298.15 K	989.106 kg/m3 [middle of 4 runs]	1408 m/s	1.017
303.15 K	984.372 kg/m3 and 984.37 kg/m3 and 984.374 kg/m3	1387.7 m/s and 1386.7 m/s	0.931

Cc1ccccc1C [1,2-dimethylbenzene] + COc1ccccc1
[2], x2 = 0
Conditions	mass density [kg/m3]	speed of sound [m/s]	viscosity [mPa·s]
288.15 K	883.285	1390.3	0.871
293.15 K	879.083	1369.7	0.81
298.15 K	875.532	1349.4	0.756
303.15 K	870.726	1328.3	0.708

Cc1ccc(C)cc1 [1,4-dimethylbenzene] + COc1ccccc1
[2], x2 = 0
Conditions	mass density [kg/m3]	speed of sound [m/s]	viscosity [mPa·s]
288.15 K	865.253	1352	0.701
293.15 K	860.917	1331.1	0.65
298.15 K	856.617	1310	0.611
303.15 K	852.255	1289.7	0.576

c1ccccc1 [benzene] + COc1ccccc1
[2], x2 = 0
Conditions	mass density [kg/m3]	speed of sound [m/s]	viscosity [mPa·s]
288.15 K	884.184	1347.2	0.709
293.15 K	877.43	1323.3	0.648
298.15 K	873.58	1299.7	0.604
303.15 K	868.174	1276.4	0.571

Cc1ccccc1 [toluene]
[1]
Conditions	mass density [kg/m3]	speed of sound [m/s]	viscosity [mPa·s]
288.15 K	871.412	1350	0.63
293.15 K	866.874	1327.2	0.588
298.15 K	862.2	1305.4	0.556
303.15 K	857.464	1283.8	0.523

COc1ccccc1 [anisole] + Cc1cc(C)cc(C)c1
[2], x1 = 1
Conditions	mass density [kg/m3]	speed of sound [m/s]	viscosity [mPa·s]
288.15 K	998.44	1449.1	1.188
293.15 K	993.651	1428.5	1.084
298.15 K	989.106	1408	1.017
303.15 K	984.37	1386.7	0.931

c1ccccc1 [benzene]
[1]
Conditions	mass density [kg/m3]	speed of sound [m/s]	viscosity [mPa·s]
288.15 K	884.184	1347.2	0.709
293.15 K	877.43	1323.3	0.648
298.15 K	873.58	1299.7	0.604
303.15 K	868.174	1276.4	0.571

Cc1cccc(C)c1 [1,3-dimethylbenzene] + COc1ccccc1
[2], x2 = 0
Conditions	mass density [kg/m3]	speed of sound [m/s]	viscosity [mPa·s]
288.15 K	868.317	1362.6	0.666
293.15 K	864.049	1343.4	0.619
298.15 K	859.767	1321	0.581
303.15 K	855.469	1300.3	0.552

Cc1cc(C)cc(C)c1 [1,3,5-trimethylbenzene]
[1]
Conditions	mass density [kg/m3]	speed of sound [m/s]	viscosity [mPa·s]
288.15 K	869.169	1377.5	0.754
293.15 K	865.072	1357	0.705
298.15 K	861.062	1336.9	0.661
303.15 K	856.95	1316.8	0.621

Cc1ccc(C)cc1 [1,4-dimethylbenzene]
[1]
Conditions	mass density [kg/m3]	speed of sound [m/s]	viscosity [mPa·s]
288.15 K	865.253	1352	0.701
293.15 K	860.917	1331.1	0.65
298.15 K	856.617	1310	0.611
303.15 K	852.255	1289.7	0.576

Cc1cccc(C)c1 [1,3-dimethylbenzene]
[1]
Conditions	mass density [kg/m3]	speed of sound [m/s]	viscosity [mPa·s]
288.15 K	868.317	1362.6	0.666
293.15 K	864.049	1357	0.619
298.15 K	859.767	1321	0.581
303.15 K	855.469	1300.3	0.552

Cc1ccccc1 [toluene] + COc1ccccc1
[2], x2 = 0
Conditions	mass density [kg/m3]	speed of sound [m/s]	viscosity [mPa·s]
288.15 K	871.412	1350	0.63
293.15 K	866.874	1327.2	0.588
298.15 K	862.2	1305.4	0.556
303.15 K	857.464	1283.8	0.523
